Source: patent publication US20250289827A1, “MORPHIC FORMS OF A MUTANT BRAF DEGRADER AND METHODS OF MANUFACTURE THEREOF” (C4 THERAPEUTICS, INC., priority 2022, published 2025)
Converted amounts (≈) assume the structure as drawn. “And” between values parts separate entries of the source, which are not always exact repeats. Identical values can stand only once.

Experiments:
Format in all cases: physicochemical
[1] = Crystallization at room temperature by slow evaporation
Method: About 30 mg of Compound 1 Form A was dissolved in 0.2-10 mL of solvents. Obtained solutions were filtered through a 0.45 μm syringe membrane filter. […] Solid residues were investigated by XRPD.

[2] = Water sorption and desorption (DVS) of Compound 1 Form B; details: for 1st desorp. Weight % change / 1st sorp. Weight % change / 2nd desorp. Weight % change / 2nd sorp. Weight % change: 25° C.
Method: Water sorption and desorption behavior of Compound 1 Form B was investigated by DVS at 25° C. with a cycle of 40-0-95-0-40% RH, dm/dt 0.002, min. equilibration time 60 min and maximum equilibration time 360 min XRPD was measured after the DVS test to determine form change.

[3] = Solubility in aqueous pH buffers and bio-relevant fluids at 37° C.; details: for Solubility 2 h / Solubility 24 h: LOQ: 1.5 μg/mL; for solubility at 2 h / solubility at 24 h: thermodynamic from solid
Method: Solubility of the Form B and sodium salt Form F was measured in 7 aqueous pH buffers and bio-relevant fluids including pH 1.2 HCl solution (0.2N), pH 4.5 acetate buffer (50 mM), pH 6.8 phosphate buffer (50 mM), pH 2.0 SGF, pH 6.5 FaSSIF-v1, pH 5.0 FeSSIF-v1 and water at 37° C. for 2 h and 24 h, respectively.
Accurate 20 mg of the Form B was weighed into a 20 mL glass vial. Then, 10 mL of solubility medium was added. The sodium salt Form F amount used was equivalent to 20 mg anhydrous form. Obtained suspensions were stirred at 37° C. at 400 rpm and sampled at 2 hours and at 24 hours, respectively. The samples were centrifuged at 37° C. at 4,000 rpm for 4 min. Supernatants were analyzed by HPLC and pH meter for solubility and pH value, respectively. Residual solids (wet cakes) from the 24 hours samples were also characterized by XRPD to determine physical form.

[4] = Stability study for Compound 1 Form B (storage conditions)
[5] = Solubility data for Compound 1 drug substance
[6] = pH 4.5 acetate buffer (50 mM), 37° C.
[7] = pH 6.8 phosphate buffer (50 mM), 37° C.
[8] = simulated gastric fluid, SGF, pH 2.0, 37° C.
[9] = simulated gastric fluid, pH 1.2 HCl solution (0.2N), 37° C.
[10] = 25° C. ± 2° C./60% RH ± 5% RH, 3 M
[11] = 25° C. ± 2° C./60% RH ± 5% RH, 6 M
[12] = 40° C. ± 2° C./75% RH ± 5% RH, 3 M
[13] = 40° C. ± 2° C./75% RH ± 5% RH, 6 M

## CCN(C)S(=O)(=O)Nc1ccc(F)c(Oc2ccc3ncn([C@H]4COC5(CCN(C(=O)CC6(O)CCN(c7cc8c(cc7F)c(N7CCC(=O)NC7=O)nn8C)CC6)CC5)C4)c(=O)c3c2)c1C#N [Compound 1 Form A]
[1]; 1,4-Dioxane
  Comments: Glassy material
[1]; Acetone
  Comments: Glassy material
[1]; Acetonitrile
  XRPD: Amorphous form
[1]; DCM
  XRPD: Almost amorphous form
[1]; DCM/methanol (v:v = 1:1)
  XRPD: Almost amorphous form
[1]; Ethyl acetate
  XRPD: Amorphous form
[1]; Methanol
  XRPD: Almost amorphous form
[1]; Methyl ethyl ketone
  Comments: Glassy material
[1]; THF
  Comments: Glassy material

## CCN(C)S(=O)(=O)Nc1ccc(F)c(Oc2ccc3ncn([C@H]4COC5(CCN(C(=O)CC6(O)CCN(c7cc8c(cc7F)c(N7CCC(=O)NC7=O)nn8C)CC6)CC5)C4)c(=O)c3c2)c1C#N [Compound 1 Form B]
[2]; 0% RH
  1st desorp. Weight % change: 0.0%
  1st sorp. Weight % change: 0.0%
  2nd desorp. Weight % change: 0.0%
  2nd sorp. Weight % change: 0.0%
[2]; 10% RH
  1st desorp. Weight % change: 0.1%
  1st sorp. Weight % change: 0.1%
  2nd desorp. Weight % change: 0.1%
  2nd sorp. Weight % change: 0.1%
[2]; 20% RH
  1st desorp. Weight % change: 0.3%
  1st sorp. Weight % change: 0.2%
  2nd desorp. Weight % change: 0.3%
  2nd sorp. Weight % change: 0.2%
[2]; 30% RH
  1st desorp. Weight % change: 0.4%
  1st sorp. Weight % change: 0.3%
  2nd desorp. Weight % change: 0.4%
  2nd sorp. Weight % change: 0.3%
[2]; 40% RH
  1st desorp. Weight % change: 0.5%
  1st sorp. Weight % change: 0.4%
  2nd desorp. Weight % change: 0.5%
  2nd sorp. Weight % change: 0.4%
[2]; 50% RH
  1st sorp. Weight % change: 0.5%
  2nd desorp. Weight % change: 0.8%
[2]; 60% RH
  1st sorp. Weight % change: 0.6%
  2nd desorp. Weight % change: 0.9%
[2]; 70% RH
  1st sorp. Weight % change: 0.7%
  2nd desorp. Weight % change: 1.0%
[2]; 80% RH
  1st sorp. Weight % change: 0.9%
  2nd desorp. Weight % change: 1.2%
[2]; 90% RH
  1st sorp. Weight % change: 1.2%
  2nd desorp. Weight % change: 1.4%
[2]; 95% RH
  1st sorp. Weight % change: 1.6%
  2nd desorp. Weight % change: 1.6%
[2]; DVS 25° C., 40-0-95-0-40% RH cycle
  Crystallinity change after water sorption and desorption: no changes in crystallinity
[2]; DVS 25° C., at 95% RH
  Water uptake: 1.6%
[3]; FaSSIF-v1, pH 6.5, 37° C.
  pH of supernatant 24 h: pH = 6.5
  Solubility 2 h: <LOQ
  Solubility 24 h: <LOQ
[3]; FeSSIF-v1, pH 5.0, 37° C.
  pH of supernatant 24 h: (pH = 5.0)
  solubility at 2 h: 4.8 µg/mL (≈ 5.01 µM)
  solubility at 24 h: 6.7 µg/mL (≈ 6.99 µM)
[3]; SGF, pH 2.0, 37° C.
  pH of supernatant 24 h: (pH = 2.1)
[3]; Water, 37° C.
  pH of supernatant 24 h: (pH = 7.0)
  Solubility 2 h: <LOQ
  solubility at 24 h: 4.6 µg/mL (≈ 4.8 µM)
[3]; aqueous media
  pH range of morphic form stability in aqueous media: 1.2 to 7.0
[3]; aqueous media, 37° C.
  pH dependence of solubility: pH dependent solubility
[3]; pH 1.2 HCl solution (0.2N), 37° C.
  pH of supernatant 24 h: (pH = 0.9)
[3]; [6]
  pH of supernatant 24 h: (pH = 4.5)
  Solubility 2 h: <LOQ
  Solubility 24 h: <LOQ
[3]; [7]
  pH of supernatant 24 h: (pH = 6.8)
  Solubility 2 h: <LOQ
  Solubility 24 h: <LOQ
[3]; residual solids, 24 hours, XRPD
  Form change after solubility test: no form change
[3]; [8]
  solubility at 2 h: 3.8 µg/mL (≈ 3.97 µM)
  solubility at 24 h: 5.2 µg/mL (≈ 5.43 µM)
[3]; [9]
  solubility at 2 h: 11.7 µg/mL (≈ 12.2 µM)
  solubility at 24 h: 28 µg/mL (≈ 29.2 µM)
[4]; 5 ± 3° C., 6 M
  Appearance: white solid
  Assay by UPLC (% w/w): 97.7% w/w
  Chiral purity by HPLC (% area): 99.9% area
  Purity by UPLC (% area): 99.0% area
  Related Substances, UPLC (% area), Total Impurities: 1.0% area
  Water Content by KF (% w/w): 1.2% w/w
  XRPD: Form B
[4]; 5±3° C., 25° C./60% RH, 40° C./75% RH
  Water content trend: increasing trend
[4]; 6M, 5±3° C., 25° C./60% RH, 40° C./75% RH
  Stability study outcome (appearance, purity, assay, related substance, chiral purity, water content, XRPD): meet the acceptance criteria
[4]; [10]
  Assay by UPLC (% w/w): 97.2% w/w
  Chiral purity by HPLC (% area): 99.9% area
  Purity by UPLC (% area): 98.9 % area
  Related Substances, UPLC (% area), Total Impurities: 1.1% area
  Water Content by KF (% w/w): 0.7% w/w
  XRPD: Form B
[4]; [11]
  Assay by UPLC (% w/w): 97.8% w/w
  Chiral purity by HPLC (% area): 99.9% area
  Purity by UPLC (% area): 99.1 % area
  Related Substances, UPLC (% area), Total Impurities: 0.90% area
  Water Content by KF (% w/w): 0.9% w/w
  XRPD: Form B
[4]; [12]
  Assay by UPLC (% w/w): 92.2% w/w
  Chiral purity by HPLC (% area): 99.9% area
  Purity by UPLC (% area): 92.2% area
  Related Substances, UPLC (% area), Total Impurities: 1.2% area
  Water Content by KF (% w/w): 0.9 % w/w
  XRPD: Form B
[4]; [13]
  Assay by UPLC (% w/w): 92.5% w/w
  Chiral purity by HPLC (% area): 99.9% area
  Purity by UPLC (% area): 92.5% area
  Related Substances, UPLC (% area), Total Impurities: 1.1% area
  Water Content by KF (% w/w): 1.0 % w/w
  XRPD: Form B
[4]; Initial
  Appearance: white solid
  Assay by UPLC (% w/w): 99.4% w/w and 97.3% w/w
  Chiral purity by HPLC (% area): 99.8% area
  Purity by UPLC (% area): 98.9% area and 97.3% area
  Related Substances, UPLC (% area), Total Impurities: 1.1% area
  Water Content by KF (% w/w): 0.4% w/w
  XRPD: Form B

## CCN(C)S(=O)(=O)Nc1ccc(F)c(Oc2ccc3ncn([C@H]4COC5(CCN(C(=O)CC6(O)CCN(c7cc8c(cc7F)c(N7CCC(=O)NC7=O)nn8C)CC6)CC5)C4)c(=O)c3c2)c1C#N [Compound 1, (3R)-3-[6-[2-cyano-3-[[ethyl(methyl)sulfamoyl]amino]-6-fluorophenoxy]-4-oxoquinazolin-3-yl]-8-[2-[1-[3-(2,4-dioxo-1,3-diazinan-1-yl)-5-fluoro-1-methylindazol-6-yl]-4-hydroxypiperidin-4-yl]acetyl]-1-oxa-8-azaspiro[4.5]decane]
[5]; FaSSIF, pH 6.48, fassif
  solubility: 5840 µg/mL (≈ 6100 µM)
[5]; FeSSIF, pH 4.86, fessif
  solubility: 1350 µg/mL (≈ 1410 µM)
[5]; SGF, pH 1.74, simulated gastric fluid
  solubility: 6580 µg/mL (≈ 6870 µM)
[5]; aqueous buffer, 50 mM pH 6.8 phosphate buffer solution, pH 6.76
  solubility: 1530 µg/mL (≈ 1600 µM)
[5]; aqueous buffer, 50 mM pH 7.4 phosphate buffer solution, pH 7.40
  solubility: 8790 µg/mL (≈ 9180 µM)
[5]; aqueous buffer, 100 mM pH 3.0 citrate buffer solution, pH 3.02
  solubility: 2090 µg/mL (≈ 2180 µM)
[5]; aqueous buffer, 100 mM pH 4.5 citrate buffer solution, pH 4.53
  solubility: 3160 µg/mL (≈ 3300 µM)
[5]; aqueous buffer, pH 9.0 NaOH solution, pH 8.55
  solubility: 21600 µg/mL (≈ 22500 µM)
[5]; pH 8.9, Purified water, pH 8.90
  solubility: 42400 µg/mL (≈ 44300 µM)
[5]; simulated gastric fluid, pH 1.2 HCl/KCl solution, pH 1.17
  solubility: 23000 µg/mL (≈ 24000 µM)
[5]; simulated gastric fluid, pH 2.0 HCl/KCl solution, pH 1.95
  solubility: 4350 µg/mL (≈ 4540 µM)
